The values below come from ChEMBL document CHEMBL1201862, “PubChem BioAssay data set” (2004).

One test addresses T1, Protein RecA (Mycobacterium tuberculosis, UniProt P9WHJ3).
T1 sequence (P9WHJ3 whole entry): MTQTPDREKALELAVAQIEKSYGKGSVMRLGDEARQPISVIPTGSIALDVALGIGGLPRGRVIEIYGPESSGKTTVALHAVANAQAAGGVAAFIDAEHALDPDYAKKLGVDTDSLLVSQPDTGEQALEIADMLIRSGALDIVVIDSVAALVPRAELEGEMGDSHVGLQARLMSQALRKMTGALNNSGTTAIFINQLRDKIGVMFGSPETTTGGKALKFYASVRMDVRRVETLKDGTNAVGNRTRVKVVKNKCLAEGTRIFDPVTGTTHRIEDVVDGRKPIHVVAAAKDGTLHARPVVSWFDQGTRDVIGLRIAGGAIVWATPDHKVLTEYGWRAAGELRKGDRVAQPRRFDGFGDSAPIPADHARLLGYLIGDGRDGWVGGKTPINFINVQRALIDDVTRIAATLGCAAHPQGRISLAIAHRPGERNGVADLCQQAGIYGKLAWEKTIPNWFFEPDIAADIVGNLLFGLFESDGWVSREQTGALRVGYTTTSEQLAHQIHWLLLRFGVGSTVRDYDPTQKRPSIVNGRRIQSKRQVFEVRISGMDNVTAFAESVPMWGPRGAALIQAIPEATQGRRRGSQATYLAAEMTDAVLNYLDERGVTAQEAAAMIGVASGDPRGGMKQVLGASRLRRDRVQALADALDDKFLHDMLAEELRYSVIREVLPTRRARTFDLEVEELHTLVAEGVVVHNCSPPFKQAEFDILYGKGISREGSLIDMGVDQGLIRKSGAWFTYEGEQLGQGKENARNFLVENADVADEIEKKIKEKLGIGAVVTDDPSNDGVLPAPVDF
Put plainly: Fluorescence Cell-Free Homogeneous Dose Retest to Identify Inhibitors of RecA-Intein Splicing Activity. [Related pubchem assays (depositor defined):AID2097, AID2223, AID489010, AID492950]. It counts as functional.

Test [1] deals with T2, Replicative DNA helicase DnaB (Mycobacterium tuberculosis, UniProt P9WMR3).
T2 sequence (P9WMR3 whole entry): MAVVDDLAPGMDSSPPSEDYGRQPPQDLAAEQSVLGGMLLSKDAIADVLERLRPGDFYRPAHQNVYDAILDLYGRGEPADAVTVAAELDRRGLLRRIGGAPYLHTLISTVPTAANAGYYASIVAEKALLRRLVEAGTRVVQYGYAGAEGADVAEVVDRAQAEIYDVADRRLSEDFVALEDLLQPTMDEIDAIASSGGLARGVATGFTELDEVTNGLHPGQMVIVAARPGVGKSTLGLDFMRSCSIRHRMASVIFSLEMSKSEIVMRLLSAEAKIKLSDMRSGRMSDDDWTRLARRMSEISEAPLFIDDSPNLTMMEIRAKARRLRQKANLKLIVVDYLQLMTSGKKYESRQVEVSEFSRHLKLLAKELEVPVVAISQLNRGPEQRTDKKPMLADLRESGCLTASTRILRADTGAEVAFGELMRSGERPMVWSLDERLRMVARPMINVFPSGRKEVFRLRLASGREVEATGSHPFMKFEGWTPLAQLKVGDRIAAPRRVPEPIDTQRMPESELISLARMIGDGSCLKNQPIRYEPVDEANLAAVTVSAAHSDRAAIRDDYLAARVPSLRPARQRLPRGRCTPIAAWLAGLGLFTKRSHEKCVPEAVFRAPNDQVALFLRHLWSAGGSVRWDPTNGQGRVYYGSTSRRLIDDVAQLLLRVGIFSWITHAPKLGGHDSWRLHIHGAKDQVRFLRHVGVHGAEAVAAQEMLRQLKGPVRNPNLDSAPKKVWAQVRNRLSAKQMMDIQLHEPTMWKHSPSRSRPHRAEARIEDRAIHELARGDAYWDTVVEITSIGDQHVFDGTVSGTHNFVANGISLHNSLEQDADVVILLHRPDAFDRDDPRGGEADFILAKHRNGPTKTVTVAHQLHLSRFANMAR
Put plainly: DnaB intein splicing inhibitors, dose response, biochemical, cell-free fluorescence (AID 449749). It counts as functional.

Test [2] is described as follows: viability of uninfected HEp-2 cells – cell-based, HTS, cytotoxicity control for RSV inhibitor project, dose response (AID 2410). It counts as functional. Conditions: human respiratory syncytial virus.
Test [3] has as its target T3, Rac GTPase-activating protein 1 (Homo sapiens, UniProt Q9H0H5).
T3 sequence (Q9H0H5 whole entry): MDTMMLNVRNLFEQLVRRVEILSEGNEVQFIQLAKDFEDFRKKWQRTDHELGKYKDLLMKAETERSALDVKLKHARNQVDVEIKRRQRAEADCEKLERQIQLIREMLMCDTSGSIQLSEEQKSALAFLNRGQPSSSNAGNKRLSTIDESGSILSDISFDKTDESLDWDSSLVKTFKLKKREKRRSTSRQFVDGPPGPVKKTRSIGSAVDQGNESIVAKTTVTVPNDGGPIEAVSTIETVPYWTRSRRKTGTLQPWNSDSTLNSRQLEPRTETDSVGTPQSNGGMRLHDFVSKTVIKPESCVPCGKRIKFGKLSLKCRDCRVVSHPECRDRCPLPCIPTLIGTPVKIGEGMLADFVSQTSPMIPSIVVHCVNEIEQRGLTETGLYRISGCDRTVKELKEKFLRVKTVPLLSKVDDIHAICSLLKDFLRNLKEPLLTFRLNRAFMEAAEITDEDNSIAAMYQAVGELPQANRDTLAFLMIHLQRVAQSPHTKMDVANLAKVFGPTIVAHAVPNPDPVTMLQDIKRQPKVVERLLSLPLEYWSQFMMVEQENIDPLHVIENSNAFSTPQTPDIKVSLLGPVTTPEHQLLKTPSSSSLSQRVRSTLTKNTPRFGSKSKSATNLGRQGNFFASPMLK
The test is described as follows: blockers of MgcRacGAP-driven Rac1 GTP hydrolysis – biochemical, ADP Hunter fluorescence, primary and confirmatory, confirmation (AID 624330). It counts as functional.

Test [4] can be described thus: NIH3T3 cell viability loss – ATP luminescence, mouse fibroblasts, counter-screen, dose response (AID 2010).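 Further: cells exposed to compound for about 90 hours before reading.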 It counts as functional, cell-based.
A short description of test [5]: Trypanosoma cruzi growth suppression in host cells – NIH3T3 host cells, beta-gal luminescence, confirmation (AID 2044).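 Further: intracellular parasites grown in NIH/3T3 mouse fibroblasts as host cells; luminescent beta-galactosidase reporter signal from transgenic T. cruzi replicating inside host cells; inhibitors lower the luminescence signal.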 It counts as functional, cell-based.
Test [6] concerns Streptococcus sp. 'group A'. Put plainly: Streptococcus pyogenes SK(-)GAS viability under kanamycin – luminescence, BacTiterGlo, confirmation, counter-screen for streptokinase expression inhibitor project, dose response (AID 1900). It counts as functional, organism-based.
A further test deals with T4, Streptokinase A (Streptococcus pyogenes serotype M1, UniProt P10520).
T4 sequence (P10520 whole entry): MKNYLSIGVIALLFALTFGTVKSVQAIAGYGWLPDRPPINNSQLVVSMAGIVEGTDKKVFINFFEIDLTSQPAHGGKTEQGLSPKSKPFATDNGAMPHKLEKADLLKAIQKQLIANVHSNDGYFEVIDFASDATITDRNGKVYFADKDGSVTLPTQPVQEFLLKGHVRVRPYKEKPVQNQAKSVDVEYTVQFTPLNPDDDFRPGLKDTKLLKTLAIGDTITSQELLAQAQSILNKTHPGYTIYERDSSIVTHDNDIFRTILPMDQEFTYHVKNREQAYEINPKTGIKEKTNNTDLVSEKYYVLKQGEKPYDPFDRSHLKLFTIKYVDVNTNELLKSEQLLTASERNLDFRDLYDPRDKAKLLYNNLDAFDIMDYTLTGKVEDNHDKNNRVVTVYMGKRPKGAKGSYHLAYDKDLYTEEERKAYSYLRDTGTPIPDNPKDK
Put plainly: viability-normalized secreted streptokinase activity reduction – plasminogen activation absorbance, OD405, dose response (AID 1914).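 Further: secreted streptokinase activity via plasminogen activation per viability signal from cell pellet.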 It is filed as functional, Streptococcus pyogenes M1 GAS.

The subject of the next test is Streptococcus. Put plainly: GAS UMAA2166 growth inhibition – luminescence, BacTiterGlo, counter-screen for streptokinase expression inhibitor project, dose response (AID 1915).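 Further: potency for reduction of bacterial viability or growth.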 It is filed as functional, organism-based.

Calls of active or inactive are those of the source.

In the case of `COc1ccc(CN2CCNC(=O)C2CC(=O)N(C)Cc2ccncn2)c(OC)c1` (stereo not drawn), at Protein RecA, the EC50 is 24.7 µM (active). Also, the AC50 in test [1] is 89.1 µM (active).

On to `COc1cc(C2C(C#N)=C(N)Oc3[nH]nc(C)c32)cc2c1OCO2` (stereo not drawn), for which the EC50 on Protein RecA is 1.38 µM (active). For the same molecule, the AC50 in test [1] is 2.11 µM (active).

For the molecule `COc1ccc(/C=C2/C(=O)N(c3ccccc3)N=C2C)c(OC)c1`, on Protein RecA, the EC50 was 2.64 µM (active). Moreover, the AC50 in [1] was 3.87 µM (active).

Take `Cc1ccc(-n2nc3c(=O)n(CCCC(=O)NCc4ccccc4Cl)nc(C)c3c2C)cc1`: in test [2], the CC50 was > 50 µM (active).

As for `CCCCCN1N=C(C)CC1=O`, on Protein RecA, the EC50 is 2.79 µM (active). Moreover, in [1], the AC50 was 6.18 µM (active).

For `CN(CC(=O)Nc1ccc(Cl)c(C(F)(F)F)c1)C(=O)c1cc(-c2ccncc2)nc2ccccc12`, the CC50 in [2] was 20 µM (active).

With `O=C(Oc1ccc(-c2nnco2)cc1)c1ccco1`, on Protein RecA, the EC50 is 15.3 µM (active). The AC50 in test [1] was 17.6 µM (active).

`COc1ccc(-c2nc(-c3cc([N+](=O)[O-])ccc3C)c(-c3ccccc3)[nH]2)cc1O`: the CC50 in test [2] is 15.1 µM (active).

`CCOC(=O)c1sc(Nc2ccc(Br)cc2)nc1C`: in [2], the CC50 is 27.5 µM (active).

Regarding `COc1cc(/C=C(\C#N)C(=O)c2c[nH]c3ccccc23)cc(OC)c1O`, the concentration for a half-maximal effect (EC50) on Protein RecA was 1.18 µM (active). Besides, the IC50 in [3] was 43.6 µM (active). Also, the concentration at half-maximal activity (AC50) in test [1] is 1.26 µM (active).

In the case of `CC(=O)NC(c1ccc(Cl)cc1)c1c(O)ccc2ccc(O)cc12` (stereo not drawn), the EC50 at Protein RecA was 4.61 µM (active). Besides, the AC50 in test [1] is > 120 µM (inactive).

As for `Cc1cccc(C2c3[nH]c4ccccc4c3CCN2Cc2cccn2-c2ncccn2)c1` (stereo not drawn), the EC50 in test [4] was 20.7 µM (active); in test [5], 0.647 µM (active). For the same molecule, the CC50 in [2] was 20.4 µM (active).

With `CCOC(=O)C1CCC2(CC1)C(C#N)=C(N)Oc1[nH]nc(C)c12` (stereo not drawn), the EC50 on Protein RecA was > 380 µM (inactive). In [1], the concentration at half-maximal activity (AC50) is 53.1 µM (active).

Consider `O=C(CN1C(=O)S/C(=C\C=C\c2ccccc2)C1=O)Nc1ccccc1C(=O)O`, for which the EC50 in [6] was 5.14 µM (active); at Protein RecA it was 10.8 µM (active); on Streptokinase A, 4.37 µM (active); in the test on Streptococcus it was 14.9 µM (active). In addition, in test [1], the AC50 is 8.47 µM (active).

Regarding `COc1cc2c(C(=O)N3CCOCC3)c(CSc3ccccc3)n(C)c2cc1Br`, in [2], the CC50 is 20.7 µM (active).

Turning to `Cc1noc(O)c1N=Nc1ccc2[nH]c(O)nc2c1`, in [2], the CC50 was 22.4 µM (active).

As for `CCc1ccc(NS(=O)(=O)c2ccc3ncc(C(=O)N4CCc5ccccc54)c(O)c3c2)cc1`, the CC50 in test [2] is > 50 µM (active).

Regarding `CO/C(O)=C1/C(C)=NC2=C(C(=O)CCC2)C1c1cn(Cc2ccc(Br)cc2)nc1-c1ccccc1` (stereo not drawn), in test [2], the CC50 was 17.4 µM (active).
